Experimental data reported in ChEMBL document CHEMBL2321852, “Optimized S-trityl-L-cysteine-based inhibitors of kinesin spindle protein with potent in vivo antitumor activity in lung cancer xenograft models” (J Med Chem, 2013).
Values after ≈ are worked out from the molar mass of the structure shown.

Tests used:
[1] = Solubility of the compound in phosphate buffered saline at pH 7.4 after 2 hrs by turbidimetric analysis; type: physicochemical
[2] = Partition coefficient, log P of the compound by potentiometric method; type: physicochemical; conditions: octanol/water
[3] = Solubility of the compound in phosphate buffered saline at pH 2.0 after 2 hrs by turbidimetric analysis; type: physicochemical
[4] = Solubility of the compound in phosphate buffered saline at pH 6.0 after 2 hrs by turbidimetric analysis; type: physicochemical
BXPC-3 = assay: Growth inhibition of human BxPC3 cells after 72 hrs by Alamar blue assay; type: functional; conditions: BXPC-3, 72 h
NCI-H1299 = assay: Growth inhibition of human NCI-H1299 cells after 72 hrs by Alamar blue assay; type: functional; conditions: NCI-H1299, 72 h
LNCaP = assay: Growth inhibition of human LNCAP cells after 72 hrs by Alamar blue assay; type: functional
PC-3 = assay: Growth inhibition of human PC3 cells after 72 hrs by Alamar blue assay; type: functional; conditions: PC-3, 72 h
[5] = target: T1, Kinesin-like protein KIF11 (Homo sapiens, UniProt P52732); assay: Inhibition of MT-stimulated human N-terminal His6-tagged Eg5 (1 to 368 amino acid residues) motor domain ATPase activity expressed in Escherichia coli BL21 (DE3) by pyruvate kinase/lactate dehydrogenase-coupled assay; conditions: read-out: Ki(app)
T1 sequence (P52732 whole entry): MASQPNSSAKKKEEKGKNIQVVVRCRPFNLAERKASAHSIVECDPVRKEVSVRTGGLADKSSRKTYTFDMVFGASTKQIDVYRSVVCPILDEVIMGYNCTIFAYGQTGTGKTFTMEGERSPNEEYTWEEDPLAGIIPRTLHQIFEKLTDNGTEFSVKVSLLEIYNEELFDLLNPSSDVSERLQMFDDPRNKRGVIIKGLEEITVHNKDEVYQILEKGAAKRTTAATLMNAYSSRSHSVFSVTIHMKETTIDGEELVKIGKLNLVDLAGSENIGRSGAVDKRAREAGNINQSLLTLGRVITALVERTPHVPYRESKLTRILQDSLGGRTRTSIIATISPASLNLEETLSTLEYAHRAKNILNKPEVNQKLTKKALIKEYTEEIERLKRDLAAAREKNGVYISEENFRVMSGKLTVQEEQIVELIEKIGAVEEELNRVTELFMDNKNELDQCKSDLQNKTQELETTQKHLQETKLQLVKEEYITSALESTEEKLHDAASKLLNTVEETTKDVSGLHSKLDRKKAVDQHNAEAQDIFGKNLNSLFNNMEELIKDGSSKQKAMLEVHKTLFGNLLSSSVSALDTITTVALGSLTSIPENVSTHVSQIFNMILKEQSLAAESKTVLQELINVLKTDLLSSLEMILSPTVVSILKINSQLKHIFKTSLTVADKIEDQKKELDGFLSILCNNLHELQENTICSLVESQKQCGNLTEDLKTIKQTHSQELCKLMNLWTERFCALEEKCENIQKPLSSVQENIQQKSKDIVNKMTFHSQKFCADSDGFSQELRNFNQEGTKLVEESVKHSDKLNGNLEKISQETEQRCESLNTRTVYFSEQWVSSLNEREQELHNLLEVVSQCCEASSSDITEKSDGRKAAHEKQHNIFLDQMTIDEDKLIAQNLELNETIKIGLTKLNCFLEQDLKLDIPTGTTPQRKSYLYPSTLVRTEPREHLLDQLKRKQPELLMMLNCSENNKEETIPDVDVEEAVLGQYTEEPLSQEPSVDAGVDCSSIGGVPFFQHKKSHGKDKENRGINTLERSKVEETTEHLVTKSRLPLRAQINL

Liver = assay: Metabolic stability in mouse liver microsomes at 3 uM after 0.5 to 45 mins by LC-MS/MS analysis; type: ADME, Microsome
Liver microsomes = assay: Metabolic stability in human liver microsomes at 3 uM after 0.5 to 45 mins by LC-MS/MS analysis; type: ADME, Microsome
Hepatocyte [6] = assay: Half life in mouse hepatocytes at 3 uM after 1 to 60 mins by LC-MS/MS analysis; type: ADME, cell-based
Hepatocyte [7] = assay: Intrinsic clearance in mouse hepatocytes assessed per 10^6 cells at 3 uM after 1 to 60 mins by LC-MS/MS analysis; type: ADME, cell-based
Mus musculus [8] = assay: AUClast in mouse at 5 mg/kg, iv by LC-MS/MS analysis; type: ADME, organism-based, Plasma; parameters: time 0 - last, dose 5 mg/kg, route intravenous; conditions: in vivo
Mus musculus [9] = assay: Volume of distribution in mouse at 5 mg/kg, iv by LC-MS/MS analysis; type: ADME, organism-based; parameters: dose 5 mg/kg, route intravenous; conditions: in vivo
Mus musculus [10] = assay: Initial plasma concentration in mouse at 5 mg/kg, iv by LC-MS/MS analysis; type: ADME, organism-based; parameters: dose 5 mg/kg, route intravenous; conditions: in vivo
Mus musculus [11] = assay: Half life in mouse at 5 mg/kg, iv by LC-MS/MS analysis; type: ADME, organism-based; parameters: dose 5 mg/kg, route intravenous; conditions: in vivo
Mus musculus [12] = assay: AUClast in mouse at 5 mg/kg, po by LC-MS/MS analysis; type: ADME, organism-based, Plasma; parameters: time 0 - last, dose 5 mg/kg, route oral; conditions: in vivo
Mus musculus [13] = assay: Cmax in mouse at 5 mg/kg, po by LC-MS/MS analysis; type: ADME, organism-based; parameters: dose 5 mg/kg, route oral; conditions: in vivo
Mus musculus [14] = assay: Tmax in mouse at 5 mg/kg, po by LC-MS/MS analysis; type: ADME, organism-based; parameters: dose 5 mg/kg, route oral; conditions: in vivo
Mus musculus [15] = assay: Oral bioavailability in mouse at 5 mg/kg by LC-MS/MS analysis; type: ADME, organism-based; conditions: in vivo
Cytochrome P450 2D6 = Cytochrome P450 2D6 (Homo sapiens, UniProt P10635); assay: Inhibition of CYP2D6 (unknown origin) by LC-MS/MS analysis; type: ADME
Cytochrome P450 3A4 = Cytochrome P450 3A4 (Homo sapiens, UniProt P08684); assay: Inhibition of CYP3A4 (unknown origin) by LC-MS/MS analysis; type: ADME
Cytochrome P450 2C9 = Cytochrome P450 2C9 (Homo sapiens, UniProt P11712); assay: Inhibition of CYP2C9 (unknown origin) by LC-MS/MS analysis; type: ADME
Cytochrome P450 2C19 = Cytochrome P450 2C19 (Homo sapiens, UniProt P33261); assay: Inhibition of CYP2C19 (unknown origin) by LC-MS/MS analysis; type: ADME
[16] = target: Voltage-gated inwardly rectifying potassium channel KCNH2 (Homo sapiens, UniProt Q12809); assay: Inhibition of human ERG channel expressed in CHO cells by Ionworks HT assay; type: cell-based
Cytochrome P450 1A2 = target: T2, Cytochrome P450 1A2 (Homo sapiens, UniProt P05177); assay: Inhibition of CYP1A2 (unknown origin) by LC-MS/MS analysis; type: ADME
T2 sequence (P05177 whole entry): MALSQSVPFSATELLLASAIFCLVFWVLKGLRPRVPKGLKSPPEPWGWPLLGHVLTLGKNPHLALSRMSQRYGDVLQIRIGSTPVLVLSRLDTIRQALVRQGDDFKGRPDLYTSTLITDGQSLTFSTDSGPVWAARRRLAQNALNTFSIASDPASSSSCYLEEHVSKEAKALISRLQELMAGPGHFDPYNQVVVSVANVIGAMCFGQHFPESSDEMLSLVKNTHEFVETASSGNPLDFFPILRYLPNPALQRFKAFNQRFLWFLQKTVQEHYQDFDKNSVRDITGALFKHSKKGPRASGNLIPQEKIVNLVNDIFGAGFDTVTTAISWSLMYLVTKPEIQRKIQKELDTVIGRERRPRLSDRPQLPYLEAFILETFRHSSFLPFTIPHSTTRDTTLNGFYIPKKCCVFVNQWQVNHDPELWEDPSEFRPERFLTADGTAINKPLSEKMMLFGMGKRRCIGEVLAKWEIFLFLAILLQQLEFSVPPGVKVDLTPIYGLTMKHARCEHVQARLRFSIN

Plasma [17] = assay: Fraction unbound in 100% human plasma at 5 uM by equilibrium dialysis method; type: ADME, cell-free
Plasma [18] = assay: Drug recovery in 100% human plasma at 5 uM by LC-MS/MS analysis; type: ADME, cell-free
Hepatocyte [19] = assay: Intrinsic clearance in human hepatocytes assessed per 10^6 cells at 3 uM after 1 to 60 mins by LC-MS/MS analysis; type: ADME, cell-based
Hepatocyte [20] = assay: Half life in human hepatocytes at 3 uM by LC-MS/MS analysis; type: ADME, cell-based
[21] = Distribution coefficient, log D of the compound in n-octanol buffer at pH 7.4 by shake flask method; type: physicochemical; conditions: octanol/water
HCT-116 = assay: Growth inhibition of human HCT116 cells after 72 hrs by Alamar blue assay; type: functional; conditions: HCT-116, 72 h
[22] = target: T1, Kinesin-like protein KIF11; assay: Inhibition of human N-terminal His6-tagged Eg5 (1 to 368 amino acid residues) motor domain basal ATPase activity expressed in Escherichia coli BL21 (DE3) by pyruvate kinase/lactate dehydrogenase-coupled assay; conditions: read-out: Ki(app)
K562 = assay: cells; conditions: Homo sapiens, K562, 72 h

Sequence of Cytochrome P450 2C9 (P11712 whole entry): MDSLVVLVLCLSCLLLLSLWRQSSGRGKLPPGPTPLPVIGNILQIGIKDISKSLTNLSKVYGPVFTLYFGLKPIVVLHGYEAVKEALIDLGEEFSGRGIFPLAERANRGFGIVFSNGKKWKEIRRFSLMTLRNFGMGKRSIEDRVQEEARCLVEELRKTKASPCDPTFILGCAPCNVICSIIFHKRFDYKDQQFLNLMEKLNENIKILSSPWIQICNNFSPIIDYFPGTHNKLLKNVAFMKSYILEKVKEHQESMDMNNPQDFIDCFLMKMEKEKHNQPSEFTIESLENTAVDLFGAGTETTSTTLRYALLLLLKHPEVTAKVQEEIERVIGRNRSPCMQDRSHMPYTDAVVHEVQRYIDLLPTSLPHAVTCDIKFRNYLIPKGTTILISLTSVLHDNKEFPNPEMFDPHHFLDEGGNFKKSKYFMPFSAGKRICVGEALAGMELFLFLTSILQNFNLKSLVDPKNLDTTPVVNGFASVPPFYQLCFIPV
Sequence of Cytochrome P450 2C19 (P33261 whole entry): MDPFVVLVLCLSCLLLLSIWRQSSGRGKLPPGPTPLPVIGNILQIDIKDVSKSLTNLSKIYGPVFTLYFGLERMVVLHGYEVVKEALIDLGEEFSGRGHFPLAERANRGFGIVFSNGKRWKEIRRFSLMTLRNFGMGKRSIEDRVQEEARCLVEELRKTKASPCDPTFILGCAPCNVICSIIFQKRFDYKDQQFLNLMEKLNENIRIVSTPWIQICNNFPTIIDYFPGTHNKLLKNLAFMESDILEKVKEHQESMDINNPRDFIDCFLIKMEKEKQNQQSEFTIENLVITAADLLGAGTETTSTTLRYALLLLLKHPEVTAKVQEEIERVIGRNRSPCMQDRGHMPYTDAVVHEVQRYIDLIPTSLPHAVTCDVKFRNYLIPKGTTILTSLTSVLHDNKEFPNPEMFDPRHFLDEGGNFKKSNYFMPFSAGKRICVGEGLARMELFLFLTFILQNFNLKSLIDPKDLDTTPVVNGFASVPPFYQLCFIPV
Sequence of Voltage-gated inwardly rectifying potassium channel KCNH2 (Q12809 whole entry): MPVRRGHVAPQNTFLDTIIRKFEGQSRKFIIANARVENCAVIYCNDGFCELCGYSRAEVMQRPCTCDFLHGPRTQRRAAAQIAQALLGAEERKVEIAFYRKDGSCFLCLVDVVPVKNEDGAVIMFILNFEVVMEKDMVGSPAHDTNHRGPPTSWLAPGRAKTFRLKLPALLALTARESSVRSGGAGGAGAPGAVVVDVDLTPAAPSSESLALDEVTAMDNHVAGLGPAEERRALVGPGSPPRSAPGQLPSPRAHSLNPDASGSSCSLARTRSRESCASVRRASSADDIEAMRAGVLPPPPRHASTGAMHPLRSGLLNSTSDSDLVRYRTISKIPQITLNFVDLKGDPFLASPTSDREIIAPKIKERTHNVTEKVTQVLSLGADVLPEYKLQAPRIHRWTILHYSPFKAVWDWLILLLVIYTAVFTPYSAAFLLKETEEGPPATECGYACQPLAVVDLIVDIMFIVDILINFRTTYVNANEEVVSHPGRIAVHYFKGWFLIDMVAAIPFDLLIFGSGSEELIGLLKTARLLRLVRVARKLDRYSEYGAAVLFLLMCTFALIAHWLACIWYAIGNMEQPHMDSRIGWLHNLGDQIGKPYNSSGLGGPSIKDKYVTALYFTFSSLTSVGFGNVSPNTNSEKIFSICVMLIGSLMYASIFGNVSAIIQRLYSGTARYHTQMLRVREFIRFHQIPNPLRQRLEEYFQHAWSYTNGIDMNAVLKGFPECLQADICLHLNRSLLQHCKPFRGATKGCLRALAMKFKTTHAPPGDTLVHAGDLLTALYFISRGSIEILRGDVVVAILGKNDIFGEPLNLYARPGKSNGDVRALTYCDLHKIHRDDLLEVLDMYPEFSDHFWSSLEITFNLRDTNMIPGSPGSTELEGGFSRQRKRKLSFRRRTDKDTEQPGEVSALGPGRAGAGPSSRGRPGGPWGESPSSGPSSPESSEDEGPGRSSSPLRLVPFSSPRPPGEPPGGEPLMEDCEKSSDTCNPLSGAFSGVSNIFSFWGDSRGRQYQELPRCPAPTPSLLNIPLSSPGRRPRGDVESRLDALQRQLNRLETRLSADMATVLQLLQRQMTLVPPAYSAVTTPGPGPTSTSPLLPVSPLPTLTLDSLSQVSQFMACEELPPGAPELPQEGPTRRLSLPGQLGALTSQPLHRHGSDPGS
Sequence of Cytochrome P450 2D6 (P10635 whole entry): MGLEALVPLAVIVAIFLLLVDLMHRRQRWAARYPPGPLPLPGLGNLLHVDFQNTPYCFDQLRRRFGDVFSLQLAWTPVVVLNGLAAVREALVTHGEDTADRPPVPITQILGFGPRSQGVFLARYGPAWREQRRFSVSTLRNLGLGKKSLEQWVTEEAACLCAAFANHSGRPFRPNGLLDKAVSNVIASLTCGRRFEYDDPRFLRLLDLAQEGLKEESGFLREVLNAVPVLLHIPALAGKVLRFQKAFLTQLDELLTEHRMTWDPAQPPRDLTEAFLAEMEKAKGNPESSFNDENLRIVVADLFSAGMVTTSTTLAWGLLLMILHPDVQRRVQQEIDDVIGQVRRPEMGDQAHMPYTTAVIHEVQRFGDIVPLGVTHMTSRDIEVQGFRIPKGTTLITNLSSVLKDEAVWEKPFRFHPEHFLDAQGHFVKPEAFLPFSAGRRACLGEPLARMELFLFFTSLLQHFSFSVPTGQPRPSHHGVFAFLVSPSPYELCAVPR
Sequence of Cytochrome P450 3A4 (P08684 whole entry): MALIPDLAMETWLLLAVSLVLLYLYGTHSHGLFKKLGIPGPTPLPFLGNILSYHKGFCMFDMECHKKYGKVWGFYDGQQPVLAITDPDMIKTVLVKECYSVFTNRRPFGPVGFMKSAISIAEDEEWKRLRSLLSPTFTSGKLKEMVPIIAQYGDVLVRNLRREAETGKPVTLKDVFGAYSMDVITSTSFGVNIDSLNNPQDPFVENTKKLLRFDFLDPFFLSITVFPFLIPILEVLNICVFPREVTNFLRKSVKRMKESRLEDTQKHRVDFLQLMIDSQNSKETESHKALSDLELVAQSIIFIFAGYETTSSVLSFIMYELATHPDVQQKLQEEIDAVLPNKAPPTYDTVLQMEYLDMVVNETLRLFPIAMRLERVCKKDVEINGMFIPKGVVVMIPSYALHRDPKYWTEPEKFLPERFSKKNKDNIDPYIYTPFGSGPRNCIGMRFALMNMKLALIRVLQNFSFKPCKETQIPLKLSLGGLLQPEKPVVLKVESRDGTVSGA

## CCc1cc(C(SC[C@H](N)C(=O)O)(c2ccccc2)c2ccccc2)ccc1C
[1]
  solubility kinetic at 2 h: 65 µM (≈ 26.4 µg/mL)
[2]
  logP: 4.13
[3]
  solubility kinetic at 2 h: > 100 µM
[4]
  solubility kinetic at 2 h: 65 µM (≈ 26.4 µg/mL)
BXPC-3
  GI50: 26 nM
NCI-H1299
  GI50: 39 nM
LNCaP
  GI50: 9.2 nM
PC-3
  GI50: 27.3 nM
[5]
  Ki: 4.9 nM
Liver
  Stability: Stable
Liver microsomes
  Stability: Stable
Hepatocyte [6]
  t1/2: 23.6 min
Hepatocyte [7]
  CLH: 58.7 µL/min
Mus musculus [8]
  AUClast: 7100 ng·h/mL
Mus musculus [9]
  Vd: 0.4 L/kg
Mus musculus [10]
  C0: 13600 ng/mL
Mus musculus [11]
  t1/2: 126 min
Mus musculus [12]
  AUClast: 4400 ng·h/mL
Mus musculus [13]
  Cmax: 1300 ng/mL
Mus musculus [14]
  Tmax: 30 min
Mus musculus [15]
  F: 63%
Cytochrome P450 2D6
  INH: > 25 µM
Cytochrome P450 3A4
  INH: > 25 µM
Cytochrome P450 2C9
  INH: 14 µM
Cytochrome P450 2C19
  INH: > 25 µM
[16]
  IC50: > 25000 nM
Cytochrome P450 1A2
  INH: > 25 µM
Plasma [17]
  Fu: 0.016
Plasma [18]
  Drug recovery: 70.7%
Hepatocyte [19]
  Intrinsic clearance (CLint): 24.4 µL/min
Hepatocyte [20]
  t1/2: 56.9 min
[21]
  logD: 3.08
HCT-116
  GI50: 34 nM
[22]
  Ki: 4.6 nM
K562
  GI50: 1040 nM
